Marks after values point to notes of the source that are not given here.
Experiments:
[1] = test system: Experimental Pseudomonas keratitis; test: Anti-inflammatory test: slit lamp scoring of conjunctival and corneal inflammation in experimental Pseudomonas keratitis; assay type: in vivo, Japanese white rabbits; settings: for Score (conjunctiva) Mean ± SE: conjunctival inflammation at 48 hours after bacterial inoculation, sum of scores; for Score (conjunctiva) Mean ± SE / Score (cornea) Mean ± SE: 6 eyes; for Score (cornea) Mean ± SE: corneal inflammation at 60 hours after bacterial inoculation, sum of corneal opacity (0–8) and corneal ulcer (0–3)
Protocol: Experimental Pseudomonas keratitis was induced for 12 Japanese white rabbits (13 weeks old, Std: JW/CSK) as described in Test Experiment 1. After bacterial inoculation, the rabbits were divided into 4 groups (three rabbits-six eyes/group). Fifty microliters of each test substance or vehicle was topically applied to both eyes of each animal 4 times a day at intervals of 4 hours beginning 12 hours after the bacterial inoculation. The test substance and vehicle were the same as those used in Test Example 1. Rabbit eyes were examined with a slit lamp biomicroscope, and severity of conjunctival inflammation at 48 hours after bacterial inoculation and corneal inflammation at 60 hours after bacterial inoculation were evaluated by assigning a numerical value to the following signs based on the method described by Kuriyama H et al. Corneal inflammation was evaluated by sums of the scores of corneal opacity (score 0–8) and corneal ulcer (score 0–3). Conjunctival inflammation was evaluated by sums of the scores of redness of palpebral conjunctival inflammation (score 0–4), edema of palpebral conjunctiva (score 0–4), nictitating membrane status (score 0–3) and discharge (score 0–3).

[2] = test system: Pseudomonas aeruginosa IID-1210; test: Anti-microbial test: viable bacterial counts in wounded rabbit cornea inoculated with Pseudomonas aeruginosa; assay type: in vivo; settings: for Colony forming units per gram of cornea Mean ± SE: cornea excised 4 hours after administration, Japanese white rabbits, 6 eyes
Protocol: Single colony isolate of Pseudomonas aeruginosa IID-1210 (provided by Department of Ophthalmology, Yokohama City University School of Medicine, Japan) on NAC agar plate was inoculated in 2 mL of heart infusion broth, and kept for overnight at 37° C. One hundred microliters of the overnight culture was inoculated in 10 mL of heart infusion broth, and then grown for about 12 hours at 37° C. with shaking. Twelve Japanese white rabbits (13 weeks old, Std: JW/CSK, Japan SLC, Inc.) were anesthetized by intravenous injection of pentobarbital sodium (25 mg/kg), and then topical anesthesia was made by instillation of 0.4% oxybuprocaine hydrochloride to both eyes. The corneal wound was produced bilaterally using a 6-mm trephine and 27-gauge needle according to the method described by Hatano H et al. (Japanese Review of Clinical Ophthalmology 79: 1153, 1985). Forty microliters of the bacterial suspension prepared above was instilled onto the wounded cornea twice (Day 1, 21:00). After bacterial inoculation, the rabbits were divided into 4 groups (three rabbits-six eyes/group). Fifty microliters of each test substance or vehicle was topically applied to both eyes of each animal once 12 hours after bacterial inoculation (Day 2, 9:00). […] Four hours after administration of test substances, the animals were sacrificed with an intravenous overdose of pentobarbital sodium, eyes were enucleated, and then corneas were excised using a 6-mm trephine. After weighing, each cornea was homogenized in 1 mL of sterile physiological saline. Aliquot (0.1 mL) of each homogenate was plated on NAC agar, and incubated for 24 hours at 37° C. The colonies were then counted. All quantitative cultures were run in triplicate, and the arithmetic mean of three measurements was determined for each cornea. Results were expressed as the number of organisms (determined by measures of colony forming units [CFU]) per gram of corneal weight.

[3] = 0.06% FK-506, 50 microliters topically 4 times a day from 12 hours after inoculation
[4] = 0.3% ofloxacin, 50 microliters topically 4 times a day from 12 hours after inoculation

C=CCC1/C=C(\C)CC(C)CC(OC)C2OC(O)(C(=O)C(=O)N3CCCCC3C(=O)OC(/C(C)=C/C3CCC(O)C(OC)C3)C(C)C(O)CC1=O)C(C)CC2OC (stereo not drawn) [FK-506, 17-allyl-1,14-dihydroxy-12-[2-(4-hydroxy-3-methoxycyclohexyl)-1-methylvinyl]-23,25-dimethoxy-13,19,21,27-tetramethyl-11,28-dioxa-4-azatricyclo [22.3.1.0^4,9]octacos-18-ene-2,3,10,16-tetraone]
Effect on conjunctival inflammation (in words) ([1]; 0.06% FK-506, 4 times a day, 48 hours after inoculation): tended to decrease the conjunctival inflammation
Effect on corneal inflammation (in words) ([1]; 0.06% FK-506, 4 times a day, 60 hours after inoculation): tended to decrease the corneal inflammation
Score (conjunctiva) Mean ± SE [1, 3]: 6.7 ± 0.4
Score (cornea) Mean ± SE [1, 3]: 6.0 ± 0.0
Colony forming units per gram of cornea Mean ± SE ([2]; 0.06% FK-506, 50 microliters topically to both eyes once 12 hours after bacterial inoculation): 31225 ± 7204 Colony forming units per gram of cornea
Effect on viable Pseudomonas counts (in words) ([2]; 0.06% FK-506, single topical application, compared with vehicle treatment): decreased the viable Pseudomonas counts as compared with vehicle treatment, but not significantly

CC1COc2c(N3CCN(C)CC3)c(F)cc3c(=O)c(C(=O)O)cn1c23 (stereo not drawn) [ofloxacin]
Score (conjunctiva) Mean ± SE [1, 4]: 6.0 ± 0.5
Score (cornea) Mean ± SE [1, 4]: 2.1 ± 0.4^a)
Colony forming units per gram of cornea Mean ± SE ([2]; 0.3% ofloxacin, 50 microliters topically to both eyes once 12 hours after bacterial inoculation): 0^a),b) Colony forming units per gram of cornea

Source: patent publication US7033604B2, “Composition for topical administration” (Sucampo AG, priority 2001, dated 2006)
